Test results taken from patent US20230248762A1, “Method and composition for supporting normal blood calcium concentrations in mammals” (Contract Manufacturing Services, LLC, priority 2022, published 2023).

Assays:
blood calcium = details: oral 50 g calcium; cited from earlier work
[1] = tested on: plasma calcium concentration; assay: Plasma calcium after calving, herds without anionic diet (Example 5); format: in vivo, multiparous cows
Text: For examples 2 thru 5, statistical analysis consisted of repeated measures analysis of variance with cow nested within treatment and time after bolus administration as the repeated measure. Treatment plasma calcium means were compared at each time point using Tukey's test of comparison of means and differences are declared to be significant when the probability of the null hypothesis being correct is P<0.075.
In Example 5, multiparous cows were utilized from several small farms that were not utilizing an anionic diet to reduce the incidence of hypocalcemia in the cows. Within a few hours of calving, cows were administered one of four treatments. Six cows were not treated with any bolus after calving (No Bolus). Four cows were treated with intravenous calcium (10.5 g calcium in the form of calcium gluconate) after calving (IV Ca). Twenty-two cows received 2 boluses after calving that contained calcium salts and Solanum glaucophyllum leaf, supplying 78 g calcium and 1,25-dihydroxyvitamin D3 glycoside equivalent to 196 ug 1,25-dihydroxyvitamin D3 (Ca+SG Bolus). Twenty-four cows were treated at calving and again 12-24 hrs. later with commercial oral calcium salt boluses that supplied 40-44 g calcium each for a total calcium dose of 80-88 g, primarily from calcium chloride (Ca Bolus).

[Ca+2].[Cl-].[Cl-] [calcium chloride]
calcium absorbed into the blood (blood calcium): about 4 g | duration of increase of blood calcium (blood calcium): 6 to 8 h | increase of blood calcium (blood calcium): approximately 1 mg/dl | time to increase of blood calcium (blood calcium): ≤ 1 h

calcium gluconate [Ca IV]
effect on calcium homeostasis mechanisms of the cow ([1]; 10.5 g calcium intravenous): inhibited the calcium homeostasis mechanisms | plasma calcium concentration, rank among treatments ([1]; 24 to 84 hours after calving): lowest plasma calcium concentration | hypocalcemia versus no treatment ([1]; days 2 and 3 following lactation): more hypocalcemia | plasma calcium concentration, rank among treatments ([1]; four hours after calving): highest plasma calcium concentration
